This assay has as its system washed human platelets. Briefly: Inhibition of ADP-induced platelet aggregation in washed human platelets. The format is cell-based. The conditions noted are these: for activity as antagonists of P2Y12-mediated platelet aggregation (in words): comment on Table 1 data; for IC50: agonist challenge (ADP) typically 1-5 μM, average of two experiments or more. How it is done: Isolation of Platelets: Human blood is obtained from informed healthy adult volunteers. Blood is collected into one-sixth volume of acid/citrate/dextrose (ACD) buffer (85 mM sodium citrate, 65 mM citric acid, and 100 mM glucose). Collected blood is placed in a water bath at 37° C. for 30 minutes. Blood is then centrifuged at 275×g for 16 minutes at room temperature and the platelet-rich plasma is removed and centrifuged at 2200×g for 13 minutes at room temperature. The platelet pellet is resuspended in 40 mL of HEPES-buffered Tyrode's solution (137 mM NaCl, 2.7 mM KCl, 1 mM MgCl2, 2 mM CaCl2, 12 mM NaHCO3, 0.36 mM NaH2PO4, 5.5 mM glucose, 5 mM HEPES pH 7.4, 0.35% bovine serum albumin or 0.35% human serum albumin) containing 10 U/mL heparin and 5 μM (final concentration) prostaglandin 12 (PGI2). The platelet suspension is incubated in a 37° C. water bath for 10 minutes and then 5 μM (final conc.) PGI2 is added just before centrifugation at 1900×g for 8 minutes. The resulting pellet is resuspended in 40 mL of HEPES-buffered Tyrode's solution containing 5 μM (final concentration) PGI2 and then is incubated for 10 minutes in a 37° C. water bath. A small aliquot (500 μL) of the platelet suspension is removed for platelet counting. Prior to centrifugation 5 μM (final concentration) PGI2 is added to the suspension and then the suspension is centrifuged at 1900×g for 8 minutes. The pellet is resuspended at a density of 5×10^8 cells/mL in HEPES-buffered Tyrode's solution containing 0.05 U/mL apyrase.
Aggregation Studies: ADP-induced platelet aggregation is determined by measuring the transmission of light through a 0.5 ml suspension of stirred (1000 rpm) washed platelets in a lumi-aggregometer at 37° C. (Chrono-Log Corp. Havertown, Pa.). The baseline of the instrument is set using 0.5 ml of Hepes-buffered Tyrode's solution. Prior to aggregation measurements, the platelet suspension is supplemented with 1 mg/ml fibrinogen. Platelet aggregation is initiated by the addition of indicated concentrations of ADP or other agonists, and the light transmission is continuously recorded for at least 8 min. When inhibitors of platelet aggregation are tested, platelets are incubated for 2 min in the presence of indicated concentrations of inhibitor before addition of ADP or other agonists, and the response is recorded for at least 8 min. The potency of agonists and inhibitors of platelet aggregation is calculated from both the rate of aggregation and the maximal extent of aggregation obtained for each determination by fitting the data to a four-parameter logistic equation using the GraphPad software package (GraphPad Corp. San Diego, Calif.).
IC50 values represent the concentration of antagonist necessary to inhibit by 50% the aggregation elicited by a given concentration of ADP.
Platelet IC50 data were determined using washed human platelets, according to the protocol of example 14. Agonist challenge (ADP) typically in the range of 1-5 μM.

Structures are written as SMILES. Where two headings read alike, the source gives them in different places.

As usually defined, the IC50 is the concentration needed to halve the response being measured. Take `CCNC(=O)Nc1ncnc2c1ncn2C1CC(CNC(=O)c2ccccc2C(=O)O)C2OC(C=Cc3ccccc3)OC21` (stereo not drawn) [Compound 239, N-{6-[6-(3-Ethyl-ureido)-purin-9-yl]-2-trans-styryl-tetrahydro-cyclopenta[1,3]dioxol-4-ylmethyl}-phthalamic acid]: the “activity as antagonists of P2Y12-mediated platelet aggregation (in words)” value (washed human platelets) is listed as “show potent activity”. The IC50 (read-out: PLATELET DATA IC50 (uM) Washed Platelets, washed human platelets) came to 0.086 µM.
Consider `CCNC(=O)Nc1ncnc2c1ncn2C1CC(COCc2ccsc2C(=O)O)C2OC(C=Cc3ccccc3)OC21` (stereo not shown) [Compound 298, 3-{6-[6-(3-Ethyl-ureido)-purin-9-yl]-2-styryl-tetrahydro-cyclopenta[1,3]dioxol-4-ylmethoxymethyl}-thiophene-2-carboxylic acid], for which the IC50 (Homo sapiens, Platelet, read-out: PLATELET DATA IC50 (uM) Washed Platelets, washed human platelets) is 0.081 µM. The “activity as antagonists of P2Y12-mediated platelet aggregation (in words)” value (washed human platelets) is “are active”.

These data come from patent US7749981B2, “Drug-eluting stents coated with non-nucleotide P2Y12 receptor antagonist compound” (Inspire Pharmaceuticals, Inc., priority 2005, dated 2010).
